The nature of data set [1]: Assay (X) Chemical stability assessment by RP-UPLC. In kind it is physicochemical. The following applies: pH 8.15, 14 days at 37° C. vs 5° C., 333 μM.
The nature of data set [2]: Assay (XI) Pharmacokinetic study in minipigs. In kind it is in vivo, Göttingen minipigs. The following applies: minipig, iv, i.v. administration, terminal half-life, read-out: iv PK minipig [T½] (converted). As for the experimental part:
Buffer: • 50 mM Dinatriumphosphatdihydrat • 184 mM Propylenglycol • 58 mM Phenol • pH adjusted to 8.15 with H3PO4. In cases where pH was adjusted to 8.15 after re-suspension of analogues, 0.2 M NaOH was used. Assay (XI) Pharmacokinetic Study in Minipigs
This is done in a pharmacokinetic (PK) study, whereamong other parameters the terminal half-life and the clearance of the derivative in question is determined. Increasing the terminal half-life and decreasing the clearance means that the compound of study is eliminated slower from the body.
Male or female Göttingen minipigs were obtained from Ellegaard Göttingen Minipigs (Dalmose, Denmark) approximately 7-14 months of age and weighing from approximately 16-35 kg were used in the studies. The minipigs were housed either individually (pigs with permanent catheters) or in a group and fed restrictedly once or twice daily with SDS minipig diet (Special Diets Services, Essex, UK). In some studies two permanent central venous catheters were implanted in vena cava caudalis or cranialis in each animal after at least 2 weeks of acclimatisation. […] On each dosing occasion these pigs were instrumented with a venflon in one ear vein through which the derivatives were dosed. Blood sampling was done by venipuncture in v. jugularis or v. cava cranialis
The animals were either unfasted or fasted for approximately 18 h before dosing and from 0 to 4 h after dosing, but had ad libitum access to water during the whole period.
Intravenous injections (the volume corresponding to usually 2-3 nmol/kg, for example 0.1 ml/kg) of the compounds were given through one catheter or through the venflon, and blood was sampled at predefined time points for up till 13 days post dosing (preferably through the other catheter or by venipuncture). Blood samples (for example 0.8 ml) were collected in tubes with EDTA buffer (8 mM) (sometimes aprotinin 500 KIU/ml blood was added) and then centrifuged at 4° C. and 1942 G for 10 minutes. […] Based on these measurements, time-plasma concentration profiles for the compound of study are plotted and a so-called non-compartmental pharmacokinetic analysis of the data is performed in WinNonlin v. 5.0 or Phoenix v. 6.2 (Pharsight Inc., Mountain View, Calif., USA) or other relevant software for PK analysis. For most compounds, the terminal part of the plasma-concentration profiles will be linear when drawn in a semi-logarithmic plot, reflecting that after the initial distribution, drug is removed from the body at a constant fractional rate. The rate (lambda Z or is equal to minus the slope of the terminal part of the plot. From this rate, also the terminal half-life may be calculated, as t½=ln(2)/λz (see, e.g., Johan Gabrielsson and Daniel Weiner: Pharmacokinetics and Pharmacodynamic Data Analysis. Concepts & Applications, 3rd Ed., Swedish Pharmaceutical Press, Stockholm (2000)).
Clearance is defined as the dose (D) divided by area under the curve (AUC) on the plasmaconcentration versus time profile (Rowland, M and Tozer T N: Clinical Pharmacokinetics: Concepts and Applications, 3rd edition, 1995 Williams Wilkins)

The next data set concerns the target T1, glucagon receptor (Homo sapiens, UniProt P47871).
T1 construct: expressed in transfected cells
The experiment in a line: Assay (I) Glucagon activity (cAMP biosensor, FLIPR). In kind it is cell-based.

Molecules are shown by their SMILES. Like-named read-outs stand apart in the source and are kept apart here. Numbered stars: 1 amine (or outer) side, 2 acyl side, 3 side chain; on linkers, the order of the positions; unused ones are H or OH. Side chains are listed from the residue outwards. Peptide text beside a SMILES is read from it. * marks the point of attachment. C18 diacid = O=C(O)CCCCCCCCCCCCCCCCC(=O)*; C16 diacid = O=C(O)CCCCCCCCCCCCCCC(=O)*; γGlu = O=C(O)[C@H](CCC(=O)[*:2])N[*:1]; C14 diacid = O=C(O)CCCCCCCCCCCCC(=O)*; AEEA = NCCOCCOCC(=O)O

A word on the EC50: it is the midpoint of the concentration-response curve. Read a low EC50 as greater potency.

T1 sequence (P47871 26-477): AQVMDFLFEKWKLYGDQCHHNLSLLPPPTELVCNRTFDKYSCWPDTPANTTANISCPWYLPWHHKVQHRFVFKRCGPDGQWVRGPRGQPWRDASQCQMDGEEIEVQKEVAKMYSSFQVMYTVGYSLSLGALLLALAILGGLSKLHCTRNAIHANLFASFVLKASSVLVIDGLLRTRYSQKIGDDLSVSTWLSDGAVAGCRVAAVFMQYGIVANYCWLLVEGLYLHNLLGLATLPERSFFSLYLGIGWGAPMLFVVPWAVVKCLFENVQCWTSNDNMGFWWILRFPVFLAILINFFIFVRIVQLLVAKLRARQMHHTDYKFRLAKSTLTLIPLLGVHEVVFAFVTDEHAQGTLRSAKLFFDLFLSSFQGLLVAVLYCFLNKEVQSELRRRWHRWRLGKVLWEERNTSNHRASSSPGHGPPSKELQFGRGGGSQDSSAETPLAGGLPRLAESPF

As to `CC(C)C[C@H](NC(=O)[C@H](CC(=O)O)NC(=O)[C@H](CC(C)C)NC(=O)[C@H](Cc1ccc(O)cc1)NC(=O)[C@H](CCCCN)NC(=O)[C@H](CO)NC(=O)[C@H](Cc1ccc(O)cc1)NC(=O)[C@H](CC(=O)O)NC(=O)[C@H](CO)NC(=O)[C@@H](NC(=O)[C@H](Cc1ccccc1)NC(=O)[C@@H](NC(=O)CNC(=O)[C@H](CCC(N)=O)NC(=O)[C@H](CO)NC(=O)[C@@H](N)Cc1c[nH]cn1)[C@@H](C)O)[C@@H](C)O)C(=O)N[C@@H](CCCNC(=N)N)C(=O)N[C@@H](CCCNC(=N)N)C(=O)N[C@@H](C)C(=O)N[C@@H](CCC(N)=O)C(=O)N[C@@H](CC(=O)O)C(=O)N[C@@H](Cc1ccccc1)C(=O)N[C@H](C(=O)N[C@@H](CCCCNC(=O)CC[C@H](NC(=O)CC[C@H](NC(=O)COCCOCCNC(=O)COCCOCCNC(=O)CC[C@H](NC(=O)CCCCCCCCCCCCCCCCC(=O)O)C(=O)O)C(=O)O)C(=O)O)C(=O)N[C@@H](Cc1c[nH]c2ccccc12)C(=O)N[C@@H](CC(C)C)C(=O)N[C@@H](CC(C)C)C(=O)N[C@@H](CO)C(=O)N[C@H](C(=O)O)[C@@H](C)O)C(C)C` [Example 13, N^ε24-[(4S)-4-carboxy-4-[[(4S)-4-carboxy-4-[[2-[2-[2-[[2-[2-[2-[[(4S)-4-carboxy-4-(17-carboxyheptadecanoylamino)butanoyl]amino]ethoxy]ethoxy]acetyl]amino]ethoxy]ethoxy]acetyl]amino]butanoyl]amino]butanoyl]-[Leu^16,Lys^24,Leu^27,Ser^25]-Glucagon] (H-HSQGTFTSDYSKYLDLRRAQDFVK([γGlu-γGlu-AEEA-AEEA-γGlu-C18 diacid])WLLST-OH; N-terminus and C-terminus assumed), the “Chemical stability [Purity loss/14 days 37 C.]” value in data set [1] turned out to be 5.1%. Moreover, the half-life in data set [2] (in vivo) was 76.4 h.

With `CC(C)C[C@H](NC(=O)[C@H](Cc1ccc(O)cc1)NC(=O)[C@H](CCCNC(=N)N)NC(=O)[C@H](CO)NC(=O)[C@H](Cc1ccc(O)cc1)NC(=O)[C@H](CC(=O)O)NC(=O)[C@H](CO)NC(=O)[C@@H](NC(=O)[C@H](Cc1ccccc1)NC(=O)[C@@H](NC(=O)CNC(=O)[C@H](CCC(N)=O)NC(=O)[C@H](CO)NC(=O)[C@@H](N)Cc1c[nH]cn1)[C@@H](C)O)[C@@H](C)O)C(=O)N[C@@H](CC(=O)O)C(=O)N[C@@H](C)C(=O)N[C@@H](CCCNC(=N)N)C(=O)N[C@@H](CCCNC(=N)N)C(=O)N[C@@H](C)C(=O)N[C@@H](CCC(N)=O)C(=O)N[C@@H](CC(=O)O)C(=O)N[C@@H](Cc1ccccc1)C(=O)N[C@H](C(=O)N[C@@H](CCCCNC(=O)CC[C@H](NC(=O)CC[C@H](NC(=O)COCCOCCNC(=O)COCCOCCNC(=O)CC[C@H](NC(=O)CCCCCCCCCCCCCCCCC(=O)O)C(=O)O)C(=O)O)C(=O)O)C(=O)N[C@@H](Cc1c[nH]c2ccccc12)C(=O)N[C@@H](CC(C)C)C(=O)N[C@@H](CC(C)C)C(=O)N[C@@H](CO)C(=O)N[C@H](C(=O)O)[C@@H](C)O)C(C)C` [Example 16, N^ε24-[(4S)-4-carboxy-4-[[(4S)-4-carboxy-4-[[2-[2-[2-[[2-[2-[2-[[(4S)-4-carboxy-4-(17-carboxyheptadecanoylamino)butanoyl]amino]ethoxy]ethoxy]acetyl]amino]ethoxy]ethoxy]acetyl]amino]butanoyl]amino]butanoyl]-[Arg^12,Ala^16,Lys^24,Leu^27,Ser^28]-Glucagon] (H-HSQGTFTSDYSRYLDARRAQDFVK([γGlu-γGlu-AEEA-AEEA-γGlu-C18 diacid])WLLST-OH), the half-life in data set [2] (both sexes, Göttingen, plasma) was 86.6 h. Also, the midpoint of the response on glucagon receptor, the EC50, lay at 0.158 nM.

For the molecule `CC(C)C[C@H](NC(=O)[C@H](CC(=O)O)NC(=O)[C@H](CC(C)C)NC(=O)[C@H](Cc1ccc(O)cc1)NC(=O)[C@H](CCCNC(=N)N)NC(=O)[C@H](CO)NC(=O)[C@H](Cc1ccc(O)cc1)NC(=O)[C@H](CC(=O)O)NC(=O)[C@H](CO)NC(=O)[C@@H](NC(=O)[C@H](Cc1ccccc1)NC(=O)[C@@H](NC(=O)CNC(=O)[C@H](CCC(N)=O)NC(=O)[C@H](CO)NC(=O)[C@@H](N)Cc1c[nH]cn1)[C@@H](C)O)[C@@H](C)O)C(=O)N[C@@H](CCCNC(=N)N)C(=O)N[C@@H](CCCNC(=N)N)C(=O)N[C@@H](C)C(=O)N[C@@H](CCC(N)=O)C(=O)N[C@@H](CC(=O)O)C(=O)N[C@@H](Cc1ccccc1)C(=O)N[C@H](C(=O)N[C@@H](CCCCNC(=O)CC[C@H](NC(=O)CC[C@H](NC(=O)COCCOCCNC(=O)COCCOCCNC(=O)CC[C@H](NC(=O)CCCCCCCCCCCCC(=O)O)C(=O)O)C(=O)O)C(=O)O)C(=O)N[C@@H](Cc1c[nH]c2ccccc12)C(=O)N[C@@H](CC(C)C)C(=O)N[C@@H](CC(C)C)C(=O)N[C@@H](CO)C(=O)N[C@H](C(=O)O)[C@@H](C)O)C(C)C` [Example 24, N^ε24-[(4S)-4-carboxy-4-[[(4S)-4-carboxy-4-[[2-[2-[2-[[2-[2-[2-[[(4S)-4-carboxy-4-(13-carboxytridecanoylamino)butanoyl]amino]ethoxy]ethoxy]acetyl]amino]ethoxy]ethoxy]acetyl]amino]butanoyl]amino]butanoyl]-[Arg^12,Leu^16,Lys^24,Leu^27,Ser^28]-Glucagon] (H-HSQGTFTSDYSRYLDLRRAQDFVK([γGlu-γGlu-AEEA-AEEA-γGlu-C14 diacid])WLLST-OH), the half-life in data set [2] (both sexes, Göttingen, plasma) is 4.1 h. The same molecule showed an EC50 at glucagon receptor of 0.006 nM.

In the case of `CC(C)C[C@H](NC(=O)[C@H](CC(=O)O)NC(=O)[C@H](CC(C)C)NC(=O)[C@H](Cc1ccc(O)cc1)NC(=O)[C@H](CCCNC(=N)N)NC(=O)[C@H](CO)NC(=O)[C@H](Cc1ccc(O)cc1)NC(=O)[C@H](CC(=O)O)NC(=O)[C@H](CO)NC(=O)[C@@H](NC(=O)[C@H](Cc1ccccc1)NC(=O)[C@@H](NC(=O)CNC(=O)[C@H](CCC(N)=O)NC(=O)[C@H](CO)NC(=O)[C@@H](N)Cc1c[nH]cn1)[C@@H](C)O)[C@@H](C)O)C(=O)N[C@@H](CCCNC(=N)N)C(=O)N[C@@H](CCCNC(=N)N)C(=O)N[C@@H](C)C(=O)N[C@@H](CCC(N)=O)C(=O)N[C@@H](CC(=O)O)C(=O)N[C@@H](Cc1ccccc1)C(=O)N[C@H](C(=O)N[C@@H](CCCCNC(=O)CC[C@H](NC(=O)CC[C@H](NC(=O)COCCOCCNC(=O)COCCOCCNC(=O)CC[C@H](NC(=O)CCCCCCCCCCCCCCC(=O)O)C(=O)O)C(=O)O)C(=O)O)C(=O)N[C@@H](Cc1c[nH]c2ccccc12)C(=O)N[C@@H](CC(C)C)C(=O)N[C@@H](CC(C)C)C(=O)N[C@@H](CO)C(=O)N[C@H](C(=O)O)[C@@H](C)O)C(C)C` [Example 25, N^ε24-[(4S)-4-carboxy-4-[[(4S)-4-carboxy-4-[[2-[2-[2-[[2-[2-[2-[[(4S)-4-carboxy-4-(15-carboxypentadecanoylamino)butanoyl]amino]ethoxy]ethoxy]acetyl]amino]ethoxy]ethoxy]acetyl]amino]butanoyl]amino]butanoyl]-[Arg^12,Leu^16,Lys^24,Leu^27,Ser^28]-Glucagon] (H-HSQGTFTSDYSRYLDLRRAQDFVK([γGlu-γGlu-AEEA-AEEA-γGlu-C16 diacid])WLLST-OH), the half-life in data set [2] (both sexes, Göttingen, plasma) is 59.6 h. Besides, on glucagon receptor, the EC50 was 0.067 nM.

Source of the values: patent US9486506B2 (Novo Nordisk A/S, priority 2011, dated 2016).
